PMC6421522, “Designing Dual Inhibitors of Anaplastic Lymphoma Kinase (ALK) and Bromodomain-4 (BRD4) by Tuning Kinase Selectivity” (Journal of Medicinal Chemistry, 2019)

Key:
Assay in all cases: KINOMEscan scanEDGE
Format in all cases: binding
Conditions in all cases: read-out: % Control (1µM)
[1] = target: T1, MAP3K4 (Homo sapiens, UniProt Q9Y6R4)
T1 construct: purchased DiscoveRx KINOMEscan (scanEDGE); Thermo Fisher SelectScreen (Z'-LYTE) for PLK-1
Description: (§1) Compound X was assayed at 1 μM in the DiscoveRx KINOMEscan (scanEDGE) assay platform. The results for single-concentration binding interactions are reported as “%Ctrl” (DMSO = 100%Ctrl), where lower numbers indicate stronger hits.

[2] = target: T2, KIT(V559D,T670I) (Homo sapiens, UniProt P10721, T670I/V559D)
T2 construct: purchased DiscoveRx KINOMEscan (scanEDGE); Thermo Fisher SelectScreen (Z'-LYTE) for PLK-1
T2 sequence (P10721 26-976 V559D/T670I): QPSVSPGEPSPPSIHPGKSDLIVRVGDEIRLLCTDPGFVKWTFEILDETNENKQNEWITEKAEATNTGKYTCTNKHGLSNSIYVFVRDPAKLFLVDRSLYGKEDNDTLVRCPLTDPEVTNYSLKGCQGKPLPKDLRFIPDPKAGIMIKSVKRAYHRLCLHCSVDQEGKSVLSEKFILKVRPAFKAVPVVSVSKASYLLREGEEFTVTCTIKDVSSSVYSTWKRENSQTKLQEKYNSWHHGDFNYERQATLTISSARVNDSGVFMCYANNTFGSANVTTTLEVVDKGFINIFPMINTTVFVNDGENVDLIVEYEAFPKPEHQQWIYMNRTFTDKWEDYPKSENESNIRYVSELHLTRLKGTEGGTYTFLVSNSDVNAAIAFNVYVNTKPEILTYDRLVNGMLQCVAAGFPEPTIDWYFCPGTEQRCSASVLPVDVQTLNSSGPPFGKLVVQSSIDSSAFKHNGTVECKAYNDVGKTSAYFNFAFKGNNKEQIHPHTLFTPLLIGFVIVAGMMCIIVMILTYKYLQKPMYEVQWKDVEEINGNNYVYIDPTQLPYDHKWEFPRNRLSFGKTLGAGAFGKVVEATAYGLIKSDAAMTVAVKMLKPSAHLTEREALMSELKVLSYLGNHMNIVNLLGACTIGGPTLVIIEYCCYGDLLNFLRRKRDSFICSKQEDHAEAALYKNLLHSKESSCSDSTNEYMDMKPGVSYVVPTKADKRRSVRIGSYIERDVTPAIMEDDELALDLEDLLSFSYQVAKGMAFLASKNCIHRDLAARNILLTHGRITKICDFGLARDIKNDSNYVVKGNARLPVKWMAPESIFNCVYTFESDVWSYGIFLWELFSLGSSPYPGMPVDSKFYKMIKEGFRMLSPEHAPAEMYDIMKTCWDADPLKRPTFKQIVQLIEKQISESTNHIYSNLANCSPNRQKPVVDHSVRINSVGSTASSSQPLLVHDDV
Description: as §1

[3] = target: T3, RET (Homo sapiens, UniProt P07949)
T3 construct: purchased DiscoveRx KINOMEscan (scanEDGE); Thermo Fisher SelectScreen (Z'-LYTE) for PLK-1
Description: as §1

[4] = target: T4, AURKB (Homo sapiens, UniProt Q96GD4)
T4 construct: purchased DiscoveRx KINOMEscan (scanEDGE); Thermo Fisher SelectScreen (Z'-LYTE) for PLK-1
Description: as §1

[5] = target: T5, YANK3 (Homo sapiens, UniProt Q86UX6)
T5 construct: purchased DiscoveRx (DiscoverX)
Description: as §1

[6] = target: T6, CDK2 (Homo sapiens, UniProt P24941)
T6 construct: purchased DiscoveRx KINOMEscan (scanEDGE); Thermo Fisher SelectScreen (Z'-LYTE) for PLK-1
Description: as §1

[7] = target: T7, ERBB4 (Homo sapiens, UniProt Q15303)
T7 construct: purchased DiscoveRx KINOMEscan (scanEDGE); Thermo Fisher SelectScreen (Z'-LYTE) for PLK-1
Description: as §1

[8] = target: T8, MARK3 (Homo sapiens, UniProt P27448)
T8 construct: purchased DiscoveRx KINOMEscan (scanEDGE); Thermo Fisher SelectScreen (Z'-LYTE) for PLK-1
Description: as §1

[9] = target: T9, BTK (Homo sapiens, UniProt Q06187)
T9 construct: purchased DiscoveRx KINOMEscan (scanEDGE); Thermo Fisher SelectScreen (Z'-LYTE) for PLK-1
Description: as §1

[10] = target: T10, ULK2 (Homo sapiens, UniProt Q8IYT8)
T10 construct: purchased DiscoveRx (DiscoverX)
Description: as §1

[11] = target: T11, PAK2 (Homo sapiens, UniProt Q13177)
T11 construct: purchased DiscoveRx KINOMEscan (scanEDGE); Thermo Fisher SelectScreen (Z'-LYTE) for PLK-1
Description: as §1

[12] = target: T12, IKK-alpha (Homo sapiens, UniProt O15111)
T12 construct: purchased DiscoveRx KINOMEscan (scanEDGE); Thermo Fisher SelectScreen (Z'-LYTE) for PLK-1
Description: as §1

[13] = target: T13, BRAF (Homo sapiens, UniProt P15056)
T13 construct: purchased DiscoveRx KINOMEscan (scanEDGE); Thermo Fisher SelectScreen (Z'-LYTE) for PLK-1
T13 sequence (P15056 whole entry): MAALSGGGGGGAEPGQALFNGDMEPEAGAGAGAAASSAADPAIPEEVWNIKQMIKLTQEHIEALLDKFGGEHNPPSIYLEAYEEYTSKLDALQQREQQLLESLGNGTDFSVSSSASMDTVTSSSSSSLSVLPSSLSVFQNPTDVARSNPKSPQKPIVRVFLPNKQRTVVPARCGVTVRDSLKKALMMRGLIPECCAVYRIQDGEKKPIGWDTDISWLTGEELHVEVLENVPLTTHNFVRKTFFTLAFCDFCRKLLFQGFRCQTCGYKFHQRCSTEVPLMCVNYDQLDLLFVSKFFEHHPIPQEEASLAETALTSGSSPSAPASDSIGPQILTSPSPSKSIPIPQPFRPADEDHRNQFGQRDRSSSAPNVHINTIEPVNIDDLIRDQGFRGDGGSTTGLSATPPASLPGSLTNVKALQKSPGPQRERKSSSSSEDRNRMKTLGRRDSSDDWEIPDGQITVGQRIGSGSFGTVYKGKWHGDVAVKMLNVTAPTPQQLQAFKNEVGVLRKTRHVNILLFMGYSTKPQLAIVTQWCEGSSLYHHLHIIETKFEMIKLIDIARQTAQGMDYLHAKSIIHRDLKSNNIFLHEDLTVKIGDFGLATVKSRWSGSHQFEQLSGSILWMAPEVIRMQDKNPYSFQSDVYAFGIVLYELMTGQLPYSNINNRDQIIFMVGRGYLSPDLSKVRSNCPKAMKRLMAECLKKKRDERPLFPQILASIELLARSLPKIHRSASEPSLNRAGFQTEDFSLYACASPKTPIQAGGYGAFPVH
Description: as §1

[14] = target: T14, ABL1-phosphorylated (Homo sapiens, UniProt P00519)
T14 construct: purchased DiscoveRx KINOMEscan (scanEDGE); Thermo Fisher SelectScreen (Z'-LYTE) for PLK-1
Description: as §1

[15] = target: T15, ADCK3 (Homo sapiens, UniProt Q8NI60)
T15 construct: purchased DiscoveRx KINOMEscan (scanEDGE); Thermo Fisher SelectScreen (Z'-LYTE) for PLK-1
Description: as §1

[16] = target: T16, CDK7 (Homo sapiens, UniProt P50613)
T16 construct: purchased DiscoveRx KINOMEscan (scanEDGE); Thermo Fisher SelectScreen (Z'-LYTE) for PLK-1
Description: as §1

[17] = target: T17, ABL1(T315I)-phosphorylated (Homo sapiens, UniProt P00519, T315I)
T17 construct: purchased DiscoveRx KINOMEscan (scanEDGE); Thermo Fisher SelectScreen (Z'-LYTE) for PLK-1
Description: as §1

[18] = target: T18, BRAF(V600E) (Homo sapiens, UniProt P15056, V600E)
T18 construct: purchased DiscoveRx KINOMEscan (scanEDGE); Thermo Fisher SelectScreen (Z'-LYTE) for PLK-1
T18 sequence (P15056 whole entry V600E): as the sequence (P15056 whole entry) above, with V600E counted along it
Description: as §1

[19] = target: T19, FAK (Homo sapiens, UniProt Q05397)
T19 construct: purchased DiscoveRx KINOMEscan (scanEDGE); Thermo Fisher SelectScreen (Z'-LYTE) for PLK-1
Description: as §1

[20] = target: T20, PDGFRB (Homo sapiens, UniProt P09619)
T20 construct: purchased DiscoveRx KINOMEscan (scanEDGE); Thermo Fisher SelectScreen (Z'-LYTE) for PLK-1
Description: as §1

[21] = target: T21, ERK1 (Homo sapiens, UniProt P27361)
T21 construct: purchased DiscoveRx KINOMEscan (scanEDGE); Thermo Fisher SelectScreen (Z'-LYTE) for PLK-1
Description: as §1

[22] = target: T22, IKK-beta (Homo sapiens, UniProt O14920)
T22 construct: purchased DiscoveRx KINOMEscan (scanEDGE); Thermo Fisher SelectScreen (Z'-LYTE) for PLK-1
Description: as §1

[23] = target: T23, ERBB2 (Homo sapiens, UniProt P04626)
T23 construct: purchased DiscoveRx KINOMEscan (scanEDGE); Thermo Fisher SelectScreen (Z'-LYTE) for PLK-1
T23 sequence (P04626 23-1255): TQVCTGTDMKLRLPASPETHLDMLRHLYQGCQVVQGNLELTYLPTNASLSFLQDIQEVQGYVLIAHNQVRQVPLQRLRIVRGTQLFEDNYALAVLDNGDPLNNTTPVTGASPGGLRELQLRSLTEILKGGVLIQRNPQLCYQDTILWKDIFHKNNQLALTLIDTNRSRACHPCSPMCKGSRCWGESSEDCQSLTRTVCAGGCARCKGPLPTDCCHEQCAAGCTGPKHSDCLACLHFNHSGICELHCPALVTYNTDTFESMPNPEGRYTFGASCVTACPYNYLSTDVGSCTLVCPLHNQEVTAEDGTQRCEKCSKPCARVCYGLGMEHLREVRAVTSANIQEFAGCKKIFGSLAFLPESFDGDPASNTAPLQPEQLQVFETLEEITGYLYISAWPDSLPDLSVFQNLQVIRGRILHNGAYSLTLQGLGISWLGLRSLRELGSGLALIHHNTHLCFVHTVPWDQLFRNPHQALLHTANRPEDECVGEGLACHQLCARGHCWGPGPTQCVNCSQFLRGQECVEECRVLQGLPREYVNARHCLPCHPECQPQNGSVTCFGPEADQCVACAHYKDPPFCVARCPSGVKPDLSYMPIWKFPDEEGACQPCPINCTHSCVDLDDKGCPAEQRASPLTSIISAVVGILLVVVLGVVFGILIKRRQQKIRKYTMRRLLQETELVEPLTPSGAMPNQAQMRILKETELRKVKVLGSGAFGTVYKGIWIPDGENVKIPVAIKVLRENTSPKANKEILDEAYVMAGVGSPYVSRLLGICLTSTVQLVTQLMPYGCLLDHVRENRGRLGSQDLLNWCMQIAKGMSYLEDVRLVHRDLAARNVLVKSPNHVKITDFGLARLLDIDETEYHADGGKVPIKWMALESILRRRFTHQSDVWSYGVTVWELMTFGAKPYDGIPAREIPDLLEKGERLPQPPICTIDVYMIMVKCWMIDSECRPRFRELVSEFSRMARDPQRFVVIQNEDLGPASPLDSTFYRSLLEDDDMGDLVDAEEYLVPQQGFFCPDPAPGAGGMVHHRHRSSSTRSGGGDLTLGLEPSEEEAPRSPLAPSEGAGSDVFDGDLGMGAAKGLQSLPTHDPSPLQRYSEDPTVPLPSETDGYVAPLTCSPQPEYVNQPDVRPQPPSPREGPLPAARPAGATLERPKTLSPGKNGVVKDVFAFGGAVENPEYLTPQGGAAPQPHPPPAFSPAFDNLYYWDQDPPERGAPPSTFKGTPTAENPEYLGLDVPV
Description: as §1

[24] = target: T24, p38-alpha (Homo sapiens, UniProt Q16539)
T24 construct: purchased DiscoveRx KINOMEscan (scanEDGE); Thermo Fisher SelectScreen (Z'-LYTE) for PLK-1
Description: as §1

[25] = target: T25, PAK4 (Homo sapiens, UniProt O96013)
T25 construct: purchased DiscoveRx KINOMEscan (scanEDGE); Thermo Fisher SelectScreen (Z'-LYTE) for PLK-1
Description: as §1

[26] = target: T26, PIM2 (Homo sapiens, UniProt Q9P1W9)
T26 construct: purchased DiscoveRx KINOMEscan (scanEDGE); Thermo Fisher SelectScreen (Z'-LYTE) for PLK-1
Description: as §1

[27] = target: T27, JAK2(JH1domain-catalytic) (Homo sapiens, UniProt O60674)
T27 construct: JAK2(JH1domain-catalytic); purchased DiscoveRx KINOMEscan (scanEDGE); Thermo Fisher SelectScreen (Z'-LYTE) for PLK-1
Description: as §1

[28] = target: T28, AKT1 (Homo sapiens, UniProt P31749)
T28 construct: purchased DiscoveRx KINOMEscan (scanEDGE); Thermo Fisher SelectScreen (Z'-LYTE) for PLK-1
Description: as §1

[29] = target: T29, TIE2 (Homo sapiens, UniProt Q02763)
T29 construct: purchased DiscoveRx KINOMEscan (scanEDGE); Thermo Fisher SelectScreen (Z'-LYTE) for PLK-1
Description: as §1

[30] = target: T30, PIM3 (Homo sapiens, UniProt Q86V86)
T30 construct: purchased DiscoveRx KINOMEscan (scanEDGE); Thermo Fisher SelectScreen (Z'-LYTE) for PLK-1
Description: as §1

[31] = target: T31, PKAC-alpha (Homo sapiens, UniProt P17612)
T31 construct: purchased DiscoveRx KINOMEscan (scanEDGE); Thermo Fisher SelectScreen (Z'-LYTE) for PLK-1
Description: as §1

[32] = target: T32, CDK9 (Homo sapiens, UniProt P50750)
T32 construct: purchased DiscoveRx KINOMEscan (scanEDGE); Thermo Fisher SelectScreen (Z'-LYTE) for PLK-1
T32 sequence (P50750 whole entry): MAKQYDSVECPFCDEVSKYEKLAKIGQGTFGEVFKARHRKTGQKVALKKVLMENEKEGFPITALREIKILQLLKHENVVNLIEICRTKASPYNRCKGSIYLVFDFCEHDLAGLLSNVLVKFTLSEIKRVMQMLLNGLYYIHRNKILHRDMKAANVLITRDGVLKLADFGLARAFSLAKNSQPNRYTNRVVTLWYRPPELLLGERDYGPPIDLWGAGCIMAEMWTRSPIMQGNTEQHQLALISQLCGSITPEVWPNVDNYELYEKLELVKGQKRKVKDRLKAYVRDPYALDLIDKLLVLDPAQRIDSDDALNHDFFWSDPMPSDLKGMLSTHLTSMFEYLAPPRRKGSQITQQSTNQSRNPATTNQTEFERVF
Description: as §1

[33] = target: T33, AXL (Homo sapiens, UniProt P30530)
T33 construct: purchased DiscoveRx KINOMEscan (scanEDGE); Thermo Fisher SelectScreen (Z'-LYTE) for PLK-1
Description: as §1

[34] = target: T34, DCAMKL1 (Homo sapiens, UniProt O15075)
T34 construct: purchased DiscoveRx KINOMEscan (scanEDGE); Thermo Fisher SelectScreen (Z'-LYTE) for PLK-1
T34 sequence (O15075 whole entry): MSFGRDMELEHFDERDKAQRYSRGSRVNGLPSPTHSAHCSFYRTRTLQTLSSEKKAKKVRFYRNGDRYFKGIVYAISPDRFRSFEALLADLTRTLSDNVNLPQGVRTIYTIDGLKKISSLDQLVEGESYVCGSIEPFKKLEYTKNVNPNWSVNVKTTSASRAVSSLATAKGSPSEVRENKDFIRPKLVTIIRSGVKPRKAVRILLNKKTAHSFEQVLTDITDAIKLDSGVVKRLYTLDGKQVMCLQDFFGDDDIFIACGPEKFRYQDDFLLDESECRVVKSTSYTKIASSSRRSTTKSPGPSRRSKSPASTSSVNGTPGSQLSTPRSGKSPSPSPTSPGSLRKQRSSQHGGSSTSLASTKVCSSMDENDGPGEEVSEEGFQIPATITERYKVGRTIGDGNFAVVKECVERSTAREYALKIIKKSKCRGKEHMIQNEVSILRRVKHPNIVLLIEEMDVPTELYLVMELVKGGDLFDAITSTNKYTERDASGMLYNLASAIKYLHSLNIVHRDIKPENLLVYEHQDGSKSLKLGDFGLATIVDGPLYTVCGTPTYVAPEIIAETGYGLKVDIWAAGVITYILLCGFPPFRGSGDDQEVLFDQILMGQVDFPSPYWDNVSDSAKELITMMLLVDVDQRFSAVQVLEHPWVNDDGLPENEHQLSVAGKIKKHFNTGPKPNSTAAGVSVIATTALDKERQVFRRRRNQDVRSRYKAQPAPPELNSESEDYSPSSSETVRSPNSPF
Description: as §1

[35] = target: T35, IGF1R (Homo sapiens, UniProt P08069)
T35 construct: purchased DiscoveRx KINOMEscan (scanEDGE); Thermo Fisher SelectScreen (Z'-LYTE) for PLK-1
Description: as §1

[36] = target: T36, PIK3C2B (Homo sapiens, UniProt O00750)
T36 construct: purchased DiscoveRx KINOMEscan (scanEDGE); Thermo Fisher SelectScreen (Z'-LYTE) for PLK-1
Description: as §1

[37] = target: T37, JAK3(JH1domain-catalytic) (Homo sapiens, UniProt P52333)
T37 construct: JAK3(JH1domain-catalytic); purchased DiscoveRx KINOMEscan (scanEDGE); Thermo Fisher SelectScreen (Z'-LYTE) for PLK-1
Description: as §1

[38] = target: T38, PIK3CA (Homo sapiens, UniProt P42336)
T38 construct: purchased DiscoveRx KINOMEscan (scanEDGE); Thermo Fisher SelectScreen (Z'-LYTE) for PLK-1
Description: as §1

[39] = target: T39, ABL1(E255K)-phosphorylated (Homo sapiens, UniProt P00519, E255K)
T39 construct: purchased DiscoveRx KINOMEscan (scanEDGE); Thermo Fisher SelectScreen (Z'-LYTE) for PLK-1
Description: as §1

[40] = target: T40, SNARK (Homo sapiens, UniProt Q9H093)
T40 construct: purchased DiscoveRx KINOMEscan (scanEDGE); Thermo Fisher SelectScreen (Z'-LYTE) for PLK-1
T40 sequence (Q9H093 whole entry): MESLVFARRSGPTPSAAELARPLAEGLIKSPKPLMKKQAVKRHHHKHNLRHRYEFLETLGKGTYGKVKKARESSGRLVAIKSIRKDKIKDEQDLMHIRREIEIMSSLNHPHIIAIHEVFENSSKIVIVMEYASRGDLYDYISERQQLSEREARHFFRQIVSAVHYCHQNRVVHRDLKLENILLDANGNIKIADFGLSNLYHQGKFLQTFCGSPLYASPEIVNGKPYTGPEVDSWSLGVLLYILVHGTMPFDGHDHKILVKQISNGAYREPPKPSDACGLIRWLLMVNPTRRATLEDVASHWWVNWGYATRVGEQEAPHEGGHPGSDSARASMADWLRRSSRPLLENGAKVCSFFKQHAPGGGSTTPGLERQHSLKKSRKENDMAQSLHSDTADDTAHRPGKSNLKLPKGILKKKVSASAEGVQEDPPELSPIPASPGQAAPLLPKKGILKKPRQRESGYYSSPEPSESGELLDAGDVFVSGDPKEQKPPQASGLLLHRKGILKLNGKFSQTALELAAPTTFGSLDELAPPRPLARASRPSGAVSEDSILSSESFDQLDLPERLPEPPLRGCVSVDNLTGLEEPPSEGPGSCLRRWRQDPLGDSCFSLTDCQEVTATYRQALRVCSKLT
Description: as §1

[41] = target: T41, FGFR2 (Homo sapiens, UniProt P21802)
T41 construct: purchased DiscoveRx KINOMEscan (scanEDGE); Thermo Fisher SelectScreen (Z'-LYTE) for PLK-1
Description: as §1

SMILES: CCOc1cc(C2CCN(C)CC2)ccc1Nc1ncc2c(n1)N(Cc1cc(C)cs1)[C@H](CC)C(=O)N2C [16k, (R)-2-((2-Ethoxy-4-(1-methylpiperidin-4-yl)phenyl)amino)-7-ethyl-5-methyl-8-((4-methylthiophen-2-yl)methyl)-7,8-dihydropteridin-6(5H)-one]
- remaining binding at 1 µM [1]: 92%
- remaining binding at 1 µM [2]: 100%
- remaining binding at 1 µM [3]: 99%
- remaining binding at 1 µM [4]: 86%
- remaining binding at 1 µM [5]: 100%
- remaining binding at 1 µM [6]: 100%
- remaining binding at 1 µM [7]: 93%
- remaining binding at 1 µM [8]: 100%
- remaining binding at 1 µM [9]: 100%
- remaining binding at 1 µM [10]: 64%
- remaining binding at 1 µM [11]: 100%
- remaining binding at 1 µM [12]: 97%
- remaining binding at 1 µM [13]: 100%
- remaining binding at 1 µM [14]: 100%
- remaining binding at 1 µM [15]: 100%
- remaining binding at 1 µM [16]: 88%
- remaining binding at 1 µM [17]: 71%
- remaining binding at 1 µM [18]: 98%
- remaining binding at 1 µM [19]: 60%
- remaining binding at 1 µM [20]: 100%
- remaining binding at 1 µM [21]: 100%
- remaining binding at 1 µM [22]: 100%
- remaining binding at 1 µM [23]: 100%
- remaining binding at 1 µM [24]: 92%
- remaining binding at 1 µM [25]: 100%
- remaining binding at 1 µM [26]: 86%
- remaining binding at 1 µM [27]: 83%
- remaining binding at 1 µM [28]: 96%
- remaining binding at 1 µM [29]: 99%
- remaining binding at 1 µM [30]: 100%
- remaining binding at 1 µM [31]: 100%
- remaining binding at 1 µM [32]: 100%
- remaining binding at 1 µM [33]: 98%
- remaining binding at 1 µM [34]: 100%
- remaining binding at 1 µM [35]: 77%
- remaining binding at 1 µM [36]: 88%
- remaining binding at 1 µM [37]: 100%
- remaining binding at 1 µM [38]: 96%
- remaining binding at 1 µM [39]: 100%
- remaining binding at 1 µM [40]: 100%
- remaining binding at 1 µM [41]: 100%
